Data published in patent US10493125B2 (Merck Sharp & Dohme Corp., priority 2015, dated 2019).
Where two headings read alike, the source gives them in different places. Starred links: 1 amine or outer side, 2 acyl side, 3 side chain; linkers in the order of their positions; H or OH if unused. Non-standard residues stand in square brackets, D forms with d. Residues, ends and D or L forms follow the SMILES beside them. Groups on a side chain read outwards from the residue. No end group written: not given here. *: point of attachment. γGlu = O=C(O)[C@H](CCC(=O)[*:2])N[*:1]; Palmitoyl = CCCCCCCCCCCCCCCC(=O)*

Legend:
human GLP1R = target: T1, human GLP1R (Homo sapiens, UniProt P43220); experiment: cAMP activity assay (HitHunter cAMP XS), cells expressing human GLP1R; assay type: cell-based
T1 construct: expressed in transfected cells
Method: (§1) Peptides were dissolved in 100% DMSO and serially diluted to generate 10 point titrations. The peptide solutions were then transferred into 384-well assay plates (150 nL/well). Assay ready frozen cells expressing human GLP1R or human GCGR were suspended in growth media consisting of DMEM medium (GIBCO), 10% FBS (GIBCO), 1×NEAA(GIBCO), 1× P/S (GIBCO), 10 ug/ml Blasticidin (GIBCO) and 200 μg/mL Hygromycin (GIBCO). […] The cell suspensions (15 μL) were then added to the assay plates containing the peptide solutions (30,000 cells/well for human GCGR; 10,000 cells/well for human GLP1R). The cells were incubated for 1 hour at room temperature in the dark. Production of cAMP was determined using HitHunter™ cAMPXS kits (DiscoverX) following manufacturer protocol. The plates were incubated for overnight at room temperature in the dark. Luminescence was measured using an EnVision Multilabel plate reader (Perkin Elmer). […] EC50 values were calculated using uses a 4 parameter logistic fit based on the Levenberg-Marquardt algorithm.

human GCGR = target: T2, human GCGR (Homo sapiens, UniProt P47871); experiment: cAMP activity assay (HitHunter cAMP XS), cells expressing human GCGR; assay type: cell-based; settings: for EC50: read-out: EC50 hGCGR; for Ratio: EC50 hGCGR divided by EC50 hGLP1
T2 construct: expressed in transfected cells
Method: as §1

[1] = Table 2, cAMP production, read-out: EC50 hGLP1R
[2] = Table 7, lipidated analogs vs parental peptides, read-out: EC50 hGLP1
[3] = Table 7, lipidated analogs vs parental peptides

T1 sequence (P43220 24-463): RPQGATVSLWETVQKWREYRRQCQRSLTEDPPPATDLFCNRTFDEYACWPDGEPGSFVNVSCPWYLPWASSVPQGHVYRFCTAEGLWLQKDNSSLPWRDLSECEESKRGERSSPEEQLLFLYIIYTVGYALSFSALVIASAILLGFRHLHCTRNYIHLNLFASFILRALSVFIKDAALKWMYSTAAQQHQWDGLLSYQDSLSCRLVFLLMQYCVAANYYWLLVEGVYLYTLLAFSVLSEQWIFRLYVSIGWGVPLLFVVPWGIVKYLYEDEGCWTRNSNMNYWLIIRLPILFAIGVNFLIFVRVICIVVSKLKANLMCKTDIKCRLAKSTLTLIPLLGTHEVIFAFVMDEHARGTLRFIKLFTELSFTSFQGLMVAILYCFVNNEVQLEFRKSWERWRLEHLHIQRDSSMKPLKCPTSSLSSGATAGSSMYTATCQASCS
T2 sequence (P47871 26-477): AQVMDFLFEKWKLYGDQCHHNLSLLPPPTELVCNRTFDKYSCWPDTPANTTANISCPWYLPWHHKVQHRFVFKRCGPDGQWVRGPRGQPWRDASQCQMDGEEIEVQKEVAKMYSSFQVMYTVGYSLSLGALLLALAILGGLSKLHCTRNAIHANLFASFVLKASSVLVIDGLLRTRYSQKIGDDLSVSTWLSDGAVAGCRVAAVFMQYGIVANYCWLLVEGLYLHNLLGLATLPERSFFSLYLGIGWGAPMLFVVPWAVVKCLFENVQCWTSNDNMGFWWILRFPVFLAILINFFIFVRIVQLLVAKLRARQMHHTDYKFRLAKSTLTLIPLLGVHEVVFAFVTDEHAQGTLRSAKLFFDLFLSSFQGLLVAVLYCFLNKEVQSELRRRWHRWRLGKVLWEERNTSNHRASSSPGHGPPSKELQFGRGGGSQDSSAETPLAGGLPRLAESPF

CC(C)C[C@H](NC(=O)[C@H](CC(C)C)NC(=O)[C@H](Cc1c[nH]c2ccccc12)NC(=O)[C@H](CCC(N)=O)NC(=O)[C@@H](NC(=O)[C@H](Cc1ccccc1)NC(=O)[C@H](CC(=O)O)NC(=O)[C@H](CCC(N)=O)NC(=O)[C@H](C)NC(=O)[C@H](CCCNC(=N)N)NC(=O)[C@H](CCCNC(=N)N)NC(=O)[C@H](CO)NC(=O)[C@H](CC(=O)O)NC(=O)[C@H](CC(C)C)NC(=O)[C@H](Cc1ccc(O)cc1)NC(=O)[C@H](CCCCN)NC(=O)[C@H](CO)NC(=O)[C@H](Cc1ccc(O)cc1)NC(=O)[C@H](CC(=O)O)NC(=O)[C@H](CO)NC(=O)[C@@H](NC(=O)[C@H](Cc1ccccc1)NC(=O)[C@@H](NC(=O)CNC(=O)[C@H](CCC(N)=O)NC(=O)[C@H](CO)NC(=O)[C@@H](N)Cc1c[nH]cn1)[C@@H](C)O)[C@@H](C)O)C(C)C)C(=O)N[C@@H](CC(N)=O)C(=O)N[C@@H](CCC(N)=O)C(N)=O [PD57] was tested, and the EC50 (human GLP1R; [1]) was 0.01 nM and the EC50 (human GCGR; Table 2, cAMP production) was 0.02 nM.

For CC(C)C[C@H](NC(=O)[C@H](CC(C)C)NC(=O)[C@H](Cc1c[nH]c2ccccc12)NC(=O)[C@H](CCC(N)=O)NC(=O)[C@@H](NC(=O)[C@H](Cc1ccccc1)NC(=O)[C@H](CC(=O)O)NC(=O)[C@H](CCC(N)=O)NC(=O)[C@H](C)NC(=O)[C@H](CCCNC(=N)N)NC(=O)[C@H](CCCNC(=N)N)NC(=O)[C@H](CO)NC(=O)[C@H](CC(=O)O)NC(=O)[C@H](CC(C)C)NC(=O)[C@H](Cc1ccc(O)cc1)NC(=O)[C@H](CCCCN)NC(=O)[C@H](CO)NC(=O)[C@H](Cc1ccc(O)cc1)NC(=O)[C@H](CC(=O)O)NC(=O)[C@H](CO)NC(=O)[C@@H](NC(=O)[C@H](Cc1ccccc1)NC(=O)[C@@H](NC(=O)CNC(=O)[C@H](CCC(N)=O)NC(=O)[C@H](CO)NC(=O)[C@@H](N)Cc1c[nH]cn1)[C@@H](C)O)[C@@H](C)O)C(C)C)C(=O)N[C@@H](CC(=O)O)C(=O)N[C@@H](CO)C(N)=O [PD59], the EC50 (human GLP1R; [1]) was 0.01 nM and the EC50 (human GCGR; Table 2, cAMP production) was 0.02 nM.

CCCCCCCCCCCCCCCC(=O)N[C@@H](CCC(=O)N[C@@H](CCC(=O)NCCCC[C@H](NC(=O)[C@H](CC(=O)O)NC(=O)[C@H](CO)NC(=O)[C@@H](NC(=O)[C@H](Cc1ccccc1)NC(=O)[C@@H](NC(=O)CNC(=O)[C@H](CCC(N)=O)NC(=O)[C@@H](CO)NC(=O)[C@@H](N)Cc1c[nH]cn1)[C@@H](C)O)[C@@H](C)O)C(=O)N[C@@H](CO)C(=O)N[C@@H](CCCCN)C(=O)N[C@@H](Cc1ccc(O)cc1)C(=O)N[C@@H](CC(C)C)C(=O)N[C@@H](CC(=O)O)C(=O)N[C@@H](CC(N)=O)C(=O)N[C@@H](CCCCN)C(=O)N[C@@H](CCCNC(=N)N)C(=O)N[C@@H](C)C(=O)N[C@@H](CCC(N)=O)C(=O)N[C@@H](CC(=O)O)C(=O)N[C@@H](Cc1ccccc1)C(=O)N[C@H](C(=O)N[C@@H](CCC(N)=O)C(=O)N[C@@H](Cc1c[nH]c2ccccc12)C(=O)N[C@@H](CC(C)C)C(=O)N[C@@H](CCSC)C(=O)N[C@@H](CCC(N)=O)C(=O)N[C@H](C(N)=O)[C@@H](C)O)C(C)C)C(=O)O)C(=O)O [TP534] (H-H[dS]QGTFTSDK([γGlu-γGlu-Palmitoyl])SKYLDNKRAQDFVQWLMQT-NH2; N-terminus assumed) gave an EC50 (human GLP1R; [2]) of 0.02 nM, a Ratio (human GCGR; Table 7) of 0.5 and an EC50 (human GCGR; [3]) of 0.01 nM.

With CCCCCCCCCCCCCCCC(=O)N[C@@H](CCC(=O)N[C@@H](CCC(=O)NCCCC[C@H](NC(=O)[C@H](CC(=O)O)NC(=O)[C@H](CO)NC(=O)[C@@H](NC(=O)[C@H](Cc1ccccc1)NC(=O)[C@@H](NC(=O)CNC(=O)[C@H](CCC(N)=O)NC(=O)[C@@H](CO)NC(=O)[C@@H](N)Cc1c[nH]cn1)[C@@H](C)O)[C@@H](C)O)C(=O)N[C@@H](CO)C(=O)N[C@@H](CCCCN)C(=O)N[C@@H](Cc1ccc(O)cc1)C(=O)N[C@@H](CC(C)C)C(=O)N[C@@H](CC(=O)O)C(=O)N[C@@H](CO)C(=O)N[C@@H](CCCNC(=N)N)C(=O)N[C@@H](CCCNC(=N)N)C(=O)N[C@@H](C)C(=O)N[C@@H](Cc1c[nH]cn1)C(=O)N[C@@H](CC(=O)O)C(=O)N[C@@H](Cc1ccccc1)C(=O)N[C@H](C(=O)N[C@@H](CCC(N)=O)C(=O)N[C@@H](Cc1c[nH]c2ccccc12)C(=O)N[C@@H](CC(C)C)C(=O)N[C@@H](CC(C)C)C(=O)N[C@@H](CC(N)=O)C(=O)N[C@H](C(N)=O)[C@@H](C)O)C(C)C)C(=O)O)C(=O)O [TP535] (H-H[dS]QGTFTSDK([γGlu-γGlu-Palmitoyl])SKYLDSRRAHDFVQWLLNT-NH2; N-terminus assumed) the EC50 (human GLP1R; [2]) was 0.05 nM, the Ratio (human GCGR; Table 7) was 0.4 and the EC50 (human GCGR; [3]) was 0.02 nM.

CC(C)C[C@H](NC(=O)[C@H](CC(C)C)NC(=O)[C@H](CCCCN)NC(=O)[C@H](CO)NC(=O)[C@H](Cc1ccc(O)cc1)NC(=O)[C@H](CC(=O)O)NC(=O)[C@H](CO)NC(=O)[C@H](CC(C)C)NC(=O)[C@H](Cc1ccccc1)NC(=O)[C@@H](NC(=O)CNC(=O)[C@H](CCC(N)=O)NC(=O)[C@@H](CO)NC(=O)[C@@H](N)Cc1c[nH]cn1)[C@@H](C)O)C(=O)N[C@@H](CC(=O)O)C(=O)N[C@@H](CO)C(=O)N[C@@H](CCCNC(=N)N)C(=O)N[C@@H](C)C(=O)N[C@@H](C)C(=O)N[C@@H](CCC(N)=O)C(=O)N[C@@H](CC(=O)O)C(=O)N[C@@H](Cc1ccccc1)C(=O)N[C@H](C(=O)N[C@@H](CCC(N)=O)C(=O)N[C@@H](Cc1c[nH]c2ccccc12)C(=O)N[C@@H](CC(C)C)C(=O)N[C@@H](CC(C)C)C(=O)N[C@@H](CCC(N)=O)C(=O)N[C@H](C(N)=O)[C@@H](C)O)C(C)C [TP552] (H-H[dS]QGTFLSDYSKLLDSRAAQDFVQWLLQT-NH2; N-terminus assumed) gave an EC50 (human GLP1R; [2]) of no less than 5 nM, a Ratio (human GCGR; Table 7) of 0.004 and an EC50 (human GCGR; [3]) of 0.02 nM.

With CCCCCCCCCCCCCCCC(=O)N[C@@H](CCC(=O)N[C@@H](CCC(=O)NCCCC[C@H](NC(=O)[C@H](CC(=O)O)NC(=O)[C@H](CO)NC(=O)[C@@H](NC(=O)[C@H](Cc1ccccc1)NC(=O)[C@@H](NC(=O)CNC(=O)[C@H](CCC(N)=O)NC(=O)[C@@H](CO)NC(=O)[C@@H](N)Cc1c[nH]cn1)[C@@H](C)O)[C@@H](C)O)C(=O)N[C@@H](CO)C(=O)N[C@@H](CCCCN)C(=O)N[C@@H](Cc1ccc(O)cc1)C(=O)N[C@@H](CC(C)C)C(=O)N[C@@H](CC(=O)O)C(=O)N[C@@H](C)C(=O)N[C@@H](CCCNC(=N)N)C(=O)N[C@@H](C)C(=O)N[C@@H](C)C(=O)N[C@@H](Cc1c[nH]cn1)C(=O)N[C@@H](CC(=O)O)C(=O)N[C@@H](Cc1ccccc1)C(=O)N[C@H](C(=O)N[C@@H](CCC(N)=O)C(=O)N[C@@H](Cc1c[nH]c2ccccc12)C(=O)N[C@@H](CC(C)C)C(=O)N[C@@H](CC(C)C)C(=O)N[C@@H](CC(N)=O)C(=O)N[C@H](C(N)=O)[C@@H](C)O)C(C)C)C(=O)O)C(=O)O [TP559] (H-H[dS]QGTFTSDK([γGlu-γGlu-Palmitoyl])SKYLDARAAHDFVQWLLNT-NH2) the EC50 (human GLP1R; [2]) was 0.05 nM, the Ratio (human GCGR; Table 7) was 0.4 and the EC50 (human GCGR; [3]) was 0.02 nM.

Molecule “H-HSQGIFFSDYSKYLDSRRAQDFVQWLMNT-NH2 [PD52]” has an EC50 (human GLP1R; [1]) of 0.02 nM and an EC50 (human GCGR; Table 2, cAMP production) of 0.03 nM.

In the case of “H-HSQGTFFSDYSKYLDSRRAQDFVQWLLET-NH2 [PD58]”, the EC50 (human GLP1R; [1]) is reported as 0.02 nM and the EC50 (human GCGR; Table 2, cAMP production) is reported as 0.03 nM.

In the case of “H-HSQGTFTSDYSKYLDSIRAQDFVQWLMDT-NH2 [PD36]”, the EC50 (human GLP1R; [1]) is reported as 0.06 nM and the EC50 (human GCGR; Table 2, cAMP production) is reported as 0.04 nM.

“H-HSQGTFTSDYSKYLDSLMAQDFVQWLMST-NH2 [PD22]” showed an EC50 (human GLP1R; [1]) of 0.03 nM and an EC50 (human GCGR; Table 2, cAMP production) of 0.02 nM.

“H-HSQGTFTSDYSKYLDSRRAHDFVQWLLNT-NH2 [PD29]” gave an EC50 (human GLP1R; [1]) of 0.02 nM, an EC50 (human GCGR; Table 2, cAMP production) of 0.02 nM and a Ratio (human GCGR; Table 7) of 1.

For “HSQGTFTSDYSKYLDELRAYDFVQWLMNT-NH2 [PD27]”, the EC50 (human GLP1R; [1]) was 0.03 nM and the EC50 (human GCGR; Table 2, cAMP production) was 0.05 nM.

Work on “HSQGTFTSDYSKYLDNKRAQDFVQWLMQT-NH2 [PD37]” yielded an EC50 (human GLP1R; [2]) of 0.05 nM, a Ratio (human GCGR; Table 7) of 3.2 and an EC50 (human GCGR; [3]) of 0.16 nM.

Molecule “HSQGTFTSDYSKYLDSKRAHDFVQWLLNT-NH2 [PD45]” has an EC50 (human GLP1R; [1]) of 0.02 nM and an EC50 (human GCGR; Table 2, cAMP production) of 0.03 nM.

In the case of “HSQGTFTSDYSKYLDSRMAYDFVQWLMNT-NH2 [PD56]”, the EC50 (human GLP1R; [1]) is reported as 0.05 nM and the EC50 (human GCGR; Table 2, cAMP production) is reported as 0.08 nM.
